Assays:
[1] = Singlet oxygen generation in aqueous solution, ABDA absorbance (Example 8, Experiment 2); type: physicochemical; conditions: for absorbance of ABDA at 378 nm with light irradiation: 50 μM ABDA, white light 300 mW/cm^2, 0-6 min
Description: (§1) Different reactive oxygen indicators were added to the photosensitized probe aqueous solution, and the fluorescence or absorption spectra were measured. Four experiments were conducted as follows:
50 μM ABDA was added to the aqueous solutions of PBS, 2 μM photosensitized probe, 2 μM photosensitized probe+0.8 mM RNA, and 2 μM RB (a commercial singlet oxygen-generating photosensitizer). These solutions were irradiated for 0-6 min with the white light (300 mW/cm^2) of the xenon lamp, absorption spectra at 300-600 nm were measured, and the absorbance values at 378 nm were recorded to indicate the generation rate of singlet oxygen.

HeLa cells [2] = assay: Flow cytometry fluorescence intensity of HeLa cells before and after photodynamic therapy (Example 15); type: cell-based; conditions: 10 μM 30 min, xenon lamp white light 5 min
Description: Three groups of HeLa cells prepared in Example 2 were washed three times with PBS. […] The three groups of cells were digested in darkness and dispersed in PBS, and the number of cells and their fluorescence intensities are recorded and analyzed by flow cytometry was.

HeLa cells [3] = assay: Fluorescence imaging of live HeLa cells stained with the probe, before and after light irradiation (Example 3); type: cell-based; conditions: 10 μM
Description: The following three groups of experiments were performed: (1) The cells were stained in darkness for 30 min, and then irradiated by a white light of the mercury lamp for 5 min; (2) The cells were stained in darkness for 30 min, without light irradiation. (1) The cells were stained in darkness for 10 min. (2) The cells were stained in darkness for 30 min. (3) The cells were stained in darkness for 60 min. (4) The cells were stained in darkness for 120 min. (1) The cells were stained for 30 min, and then irradiated by light at 510-560 nm for 10 seconds. (2) The cells were stained for 30 min, and then irradiated by light at 510-560 nm for 1 minute. (3) The cells were stained for 30 min, and then irradiated by light at 510-560 nm for 2 min. (4) The cells were stained for 30 min, and then irradiated by light at 510-560 nm for 3 min. (5) The cells were stained for 30 min, and then irradiated by light at 510-560 nm for 4 min. (6) The cells were stained for 30 min, and then irradiated by light at 510-560 nm for 5 min. The stained cells were observed under a fluorescence microscope and a confocal laser scanning microscope and the stained regions, fluorescence distributions, and intensity changes in cells were recorded.

[4] = test system: ribonucleic acid in the fixed cells; assay: DNase and RNase digestion experiments in fixed HeLa cells (Example 4); type: cell-based; conditions: 50 μg/mL RNase 2 h, 10 μM probe 30 min
Description: Preparation of fixed cells: firstly, the cover glasses (slides) covered with HeLa cells prepared in Example 2 were soaked in a 4% paraformaldehyde solution for 30 min, and then permeated with a 0.5% Triton X-100 at room temperature for 2 min to prepare fixed cells for staining.
Three groups of the above fixed cells were taken, in which, two groups were added with a 2 U/mL RNase-free DNase and a 50 μg/mL DNase-free RNase for digestion in the incubator for 2 h individually.
The stained slides were observed under a wide-field fluorescence microscope to record the stained regions, fluorescence distribution, and intensity changes in the cells.

[5] = Hydroxyl radical generation in aqueous solution, APF fluorescence (Example 8, Experiment 3); type: physicochemical; conditions: 10 μM APF, white light 300 mW/cm^2, 0-180 s
Description: as §1
10 μM APF was added to the aqueous solutions of PBS, 2 μM photosensitized probe, 2 μM photosensitized probe+0.8 mM RNA, 2 μM RB (a commercial singlet oxygen-generating photosensitizer). These solutions were irradiated for 0-180 s with the white light (300 mW/cm^2) of the xenon lamp, the fluorescence spectra at 500-700 nm were measured, and the fluorescence intensities at 514 nm were recorded to indicate the generation rate of hydroxyl radical.

[6] = test system: mitochondria of HeLa cells; assay: Colocalization with Mito-Tracker Green (MTG) in HeLa cells before and after photodynamic therapy (Example 10); type: cell-based; conditions: 10 μM probe, 1 μM MTG
Description: The glass-bottom cell culture dishes covered with HeLa cells prepared in Example 2 were washed three times with PBS, then incubated with a 1 μM MTG in a CO2 incubator in darkness for 30 min. […] The stained cells were observed under a confocal laser scanning microscope, and fluorescence distribution and intensity changes in the cells before and after the photodynamic therapy (irradiated by mercury lamp at 510-560 nm) were recorded.

ribonucleic acid [7] = assay: Recognition of ribonucleic acid and deoxyribonucleic acid in solution, absorption/fluorescence spectra (Example 5); type: binding; conditions: 10 μM probe
Description: A probe solution at concentration of 10 μM was mixed with a 120 μg/mL ribonucleic acid/deoxyribonucleic acid in PBS for 5 min, respectively, and then ultraviolet-visible absorption spectra and the fluorescence spectra under excitation at 488 nm were measured.

Ribonucleic acid (RNA) = assay: Specific fluorescence recognition of biomolecules in solution (Example 13); type: binding; conditions: 2 μM probe
Description: After interaction for 5 min, the fluorescence spectra under excitation at 500 nm were measured, and the fluorescence intensities at 600 nm were recorded. Biomolecules include: Ribonucleic acid (RNA, 1.6 mM), deoxyribonucleic acid (DNA, 1.6 mM), amino acids (10 mM), hydrogen peroxide (10 mM), and metal ions (10 mM); in which, the amino acids include: Glutathione (GSH), homocysteine (Hcy), cysteine (Cys), glycine […], alanine (Ala), norvaline (Nor), glutamate (Glu), histidine (his), isoleucine (Iso), leucine (Leu), methionine (Met), phenylalanine (Phe), proline (Pro), serine (Ser), threonine (Thr), tryptophan (Try), and tyrosine (Tyr); and the metal ions include: Ca^2+, Fe^3+, Mg^2+, and Zn^2+.

[8] = Generation rate of all types of reactive oxygen species in aqueous solution, DCFH (Example 8, Experiment 1); type: physicochemical; conditions: 2 μM probe + 0.8 mM RNA, white light 300 mW/cm^2, 0-180 s
Description: as §1
10 μM 2′,7′-dichlorodihydrofluorescein (DCFH) was added to aqueous solutions of PBS, 2 μM photosensitized probe, 2 μM photosensitized probe of the application+0.8 mM RNA, and 2 μM Rose Bengal B (RB). These solutions were irradiated for 0-180 s with white light (300 mW/cm^2) of a xenon lamp with ultraviolet light filtered out, fluorescence spectra at 500-700 nm were measured under 488 nm excitation, and the fluorescence intensities at 529 nm were recorded to indicate the generation rate of all types of reactive oxygen species.

HeLa cells [9] = assay: Photodynamic therapy efficiency to HeLa cells, MTT method (Example 16); type: cell-based; conditions: 5-20 μM, 30 min in darkness, xenon lamp white light 5 min
HeLa cells [10] = assay: Reactive oxygen species in HeLa cells before and after photodynamic therapy, DCFH-DA (Example 9); type: cell-based; conditions: 10 μM probe, 10 μM DCFH-DA, mercury lamp 510-560 nm, 3 min
Description: The glass-bottom cell culture dishes covered with HeLa cells prepared in Example 2 were washed three times with PBS, then incubated with 10 μM DCFH-DA in a CO2 incubator in darkness for 30 min. […] The stained cells were observed under a confocal laser scanning microscope, and the fluorescence distribution and intensity changes in the cells before and after the photodynamic therapy (irradiated with mercury lamp at 510-560 nm) were recorded.

ribonucleic acid [11] = assay: Binding mode with ribonucleic acid, circular dichroism spectra (Example 14); conditions: 10 μM in PBS, 5 min
Description: 10 μM (E)-4-(2-(5-methoxy-1H-indole-3-)vinyl)-1-methylquinolinium iodide was mixed with ribonucleic acid and deoxyribonucleic acid in PBS for 5 min, and the circular dichroism spectra were measured.

HeLa cells [12] = assay: Mitochondrial membrane potential of HeLa cells, JC-10 (Example 11); type: cell-based; conditions: 10 μM probe, mercury lamp 510-560 nm
Description: The cells were observed under a confocal laser scanning microscope, and the fluorescence distribution and intensity changes in the cells before and after photodynamic therapy (irradiated by mercury lamp at 510-560 nm) were recorded.

HeLa cells [13] = assay: Cell morphology (DIC) of HeLa cells during photodynamic therapy (Example 12); type: cell-based; conditions: 10 μM probe, 510-560 nm, 3 min irradiation
Description: The resulting stained cells and a control group without the photosensitized probe incubation were observed under a fluorescence microscope, and differential interference contrast images of the cells during the photodynamic therapy (irradiated with mercury lamp at 510-560 nm) were recorded.

HeLa cells [14] = assay: Dark toxicity to HeLa cells, MTT method (Example 16); type: cell-based; conditions: 0-20 μM
Description: The HeLa cells prepared in Example 2 were incubated in a 96-well plate with 1×10^4 cells per well. […] The cell viability was determined by the MTT method to determine the dark toxicity of the probe.

[15] = Oxygenous radicals by electron spin resonance with DMPO (Example 8, Experiment 4); type: physicochemical; conditions: white light 300 mW/cm^2, 5 min
Description: as §1
DMPO was added to the aqueous solutions of RNA, 2 μM photosensitized probe of the application, 2 μM photosensitized probe+0.8 mM RNA. These solutions were irradiated for 5 min by the white light (300 mW/cm^2) of the xenon lamp. The electron spin resonance spectra before and after irradiation were measured, and the signal intensities indicate the amount of hydroxyl radicals.

[16] = test system: 4T1 cell subcutaneous tumor
Description: The 4T1 cells were cultured adherently in a culture medium containing a 10% fetal bovine serum, in a saturated humidity incubator with 5% CO2 at 37° C., and subcultured every 2-3 days. After the cells have grown to the logarithmic phase, the cells were subcutaneously inoculated into the right hind leg of a nude mouse: Specifically, the overgrown cells in the T25 cell culture flask were washed with 1 mL 0.25% trypsin, and then digested with another 1 mL 0.25% trypsin for 1 to 2 min. After adding the fresh medium, the cells were evenly pipetted, counted, centrifuged and washed with PBS three times, the cell density was controlled with the added amount of PBS to make a final concentration of cells to be 1×107 per milliliter. After that the cells were inoculated subcutaneously into the right hind leg of nude mice, each with approximately 1.2×10^6 cells. After the tumors grow for approximately a week, the mice were used for tumor photodynamic therapy and in vivo fluorescence imaging experiments.
The nude mouse tumor models prepared in Example 7 were divided into three groups for intratumor injection of drugs, with a dosage of 50 μL (1 mM) per tumor volume 100 mm^3.
After the photodynamic therapy, the tumor tissues are sectioned and stained with TUNEL and HE, and the results are shown in FIG. 19.

[17] = 120 μg/mL RNA in PBS, 5 min, excitation 488 nm

In the case of `O=C1OC2(c3cc(I)c(O)c(I)c3Oc3c2cc(I)c(O)c3I)c2c(Cl)c(Cl)c(Cl)c(Cl)c21` [RB, Rose Bengal B, reference compound], the “absorbance of ABDA at 378 nm with light irradiation” value (“absorbance of ABDA at 378 nm” for short) ([1]; 2 μM, without RNA) is reported as “decreases much faster”.
For `COc1ccc2[nH]cc(/C=C/c3cc[n+](C)c4ccccc34)c2c1.[I-]` [photosensitized probe 1, (E)-4-(2-(5-methoxy-1H-indole-3-)vinyl)-1-methylquinolinium iodide], the “fluorescence intensity of the cells after photodynamic therapy versus group without photodynamic therapy” value (HeLa cells [2]) was “enhanced significantly”, the “fluorescence of live cells stained in darkness with increasing incubation time” value (HeLa cells [3]; darkness 10-120 min) was “relatively weak red fluorescence only in the cytoplasm regions” and the “fluorescence with increasing light irradiation time” value (HeLa cells [3]; stained 30 min, 510-560 nm green light 10 s-5 min) was “the fluorescence gradually increases”. The “fluorescence of live cells after light irradiation” value (HeLa cells [3]; stained 30 min, mercury lamp white light 5 min, 488 nm excitation) was “strong red fluorescence in the cytoplasm and nucleolus region”, the “fluorescence of live cells without light irradiation” value (HeLa cells [3]; stained in darkness 30 min, 488 nm excitation, confocal) was “weak red fluorescence only in the cytoplasm region” and the “fluorescence of the cells treated with RNase versus control group” value [4] was “much weaker than that of the control group”. The “hydroxyl radicals generation (APF fluorescence at 514 nm)” value ([5]; 2 μM probe + 0.8 mM RNA) was “more hydroxyl radicals are generated”, the “hydroxyl radicals generation (APF fluorescence at 514 nm)” value ([5]; 2 μM probe alone) was “can effectively generate hydroxyl radicals” and the “location of the probe before photodynamic therapy” value ([6]; darkness) was “located in the mitochondria”. For the same molecule, the “location of the probe after photodynamic therapy” value ([6]; mercury lamp 510-560 nm) was “migration of the photosensitized probe to the cytoplasm and nucleolus regions”, the “fluorescence emission peak after interacting with ribonucleic acid” value (ribonucleic acid [7]; [17]) was “around 600 nm” and the “increase of fluorescence intensity in RNA solution compared with the probe itself” value (ribonucleic acid [7]; [17]) was “approximately 40 times”. The “fluorescence with RNA compared with deoxyribonucleic acid” value (ribonucleic acid [7]; 120 μg/mL RNA or DNA in PBS) was “significantly stronger than the fluorescence after binding with deoxyribonucleic acid”, the “absorbance of ABDA at 378 nm” value ([1]; 2 μM probe + 0.8 mM RNA) was “slight decrease” and the “singlet oxygen generation compared with RB” value ([1]; 2 μM, white light 300 mW/cm^2) was “generates less singlet oxygen”. For the same molecule, the “absorbance of ABDA at 378 nm” value ([1]; 2 μM, without RNA) was “slight decrease”, the “increase of fluorescence intensity after binding with ribonucleic acid compared with the probe itself” value (Ribonucleic acid (RNA); RNA 1.6 mM in PBS, 5 min, excitation 500 nm, emission 600 nm) was “more than 100 times” and the “fluorescence with RNA compared with deoxyribonucleic acid” value (Ribonucleic acid (RNA); RNA 1.6 mM, DNA 1.6 mM) was “significantly stronger than that of the probe after binding with deoxyribonucleic acid”. The “fluorescence response to other biomolecules” value (Ribonucleic acid (RNA); amino acids, hydrogen peroxide, metal ions 10 mM) was “no obvious fluorescence response”, the “rate of reactive oxygen species production (DCFH fluorescence at 529 nm) versus probe alone and RB” value [8] was “significantly higher” and the “cell viability after photodynamic therapy” value (HeLa cells [9]) was “greatly reduced”. The “intensity of green fluorescence of DCFH-DA (reactive oxygen species level in the cells) after irradiation” value (HeLa cells [10]) was “increases remarkably”, the “binding mode with ribonucleic acid” value (ribonucleic acid [11]) was “minor groove binding” and the “circular dichroism spectrum after being mixed with DNA” value (ribonucleic acid [11]) was “no obvious change”. For the same molecule, the “circular dichroism spectrum after being mixed with RNA” value (ribonucleic acid [11]) was “negative Cotton effect”, the “mitochondria membrane potential after photodynamic therapy (JC-10 aggregates fluorescence)” value (HeLa cells [12]) was “significantly reduced” and the “cell morphology after light irradiation (symbol of cell apoptosis)” value (HeLa cells [13]) was “many vesicles form near cell membrane”. For the same molecule, the dark toxicity (HeLa cells [14]; 24 h) was “very low and negligible”, the “cell viability in darkness” value (HeLa cells [14]; incubation 24 h, darkness) was ~100% and the “oxygenous radicals generation (ESR)” value ([15]; 2 μM probe + 0.8 mM RNA) was “more oxygenous radicals can be generated”. For the same molecule, the “oxygenous radicals generation (ESR)” value ([15]; 2 μM probe alone) was “can effectively generate oxygenous radicals”, the “tumor growth (tumor volume)” value ([16]; 1+Light, within 16 days of therapy) was “significantly inhibited” and the “fluorescence intensity of the tumor site with the progress of the photodynamic therapy” value ([16]; intratumor injection 50 μL (1 mM) per 100 mm^3, 0-10 min during and 10-60 min after therapy) was “increases significantly”. For the same molecule, the “fluorescence at the tumor site after the photodynamic therapy” value ([16]; probe with light irradiation) was “bright fluorescence at the tumor site”, the “TUNEL staining of tumor tissue section” value ([16]; probe with photodynamic therapy) was “died in the apoptosis pathway” and the “HE staining of tumor tissue section” value ([16]; probe with photodynamic therapy (third group)) was “seriously damaged”. The “fluorescence at the tumor site without the photodynamic therapy” value ([16]; probe, fed in darkness) was “weak fluorescence at the tumor site”.

From patent US20220143184A1, “MITOCHONDRION/RIBONUCLEIC ACID-TARGETED AND MIGRATABLE PHOTOSENSITIZED PROBE AND APPLICATION THEREOF” (SHENZHEN INSTITUTES OF ADVANCED TECHNOLOGY, priority 2019, published 2022)
